Literature values as cited in article PMC8153205 (Journal of Inflammation Research, 2021).

Tested on: rheumatoid arthritis
Conditions: RA clinical trials

Q: With `NC(=O)c1cnc2[nH]ccc2c1N[C@@H]1[C@@H]2CC3C[C@H]1C[C@@](O)(C3)C2` [peficitinib] as the compound, how does the “SUCRA for serious adverse events (safety)” value read?
A: Its value is 0.66.
